US20200399262A1, “COMPOUNDS FOR INHIBITING PROTEIN DEGRADATION AND METHODS OF USE THEREOF IN THE TREATMENT OF CANCER” (PI Therapeutics Ltd, priority 2018, published 2020)

Experiments:
Type in all cases: cell-based
[1] = tested on: SNB-75; experiment: Cell viability panel, CyQUANT Direct; conditions: Homo sapiens, CNS, 48 hours, read-out: Compound EC50
Protocol: (§1) Cell viability panel studies. Cells were diluted in the corresponding ATCC recommended medium and dispensed in a 384-well plate, depending on the cell line used, at a density of 200-6400 cells per well. For each used cell line, the optimal cell density was used. Compound was serially diluted and 8 concentration (0.04-32 μM) were added to the cells for 72 h exposure. At t=end, of ATPlite 1Step™ (PerkinElmer) were used to calculate cell viability. Cell lines marked with asterisk were seeded 24 h prior to treatment in 96-well plates at the density range of 5,000-40,000 cells/well, according to duplication rate, in RPMI 1640 medium containing 10% fetal bovine serum and 2 mM L-glutamine. Compounds were diluted from 10 mM DMSO stock and treatment was applied at the range of 0.04-1 μM. Following incubation at 37° C. for 48 hours with increasing concentrations of the compounds, viability was determined with CyQUANT® Direct Assay Kit (Invitrogen). Output intensities were normalized to values after treatment with DMSO alone, and EC50 values were calculated using the absorbance measurements [time zero, (Tz), growth control, (C), plus the test growth at the four drug concentration levels (Ti)] as follows: [(Ti−Tz)/(C−Tz)]×100 for concentrations for which Ti>/=Tz; [(Ti−Tz)/Tz]×100 for concentrations for which Ti−<Tz.

[2] = tested on: NCI-H322M; experiment: Cell viability panel, CyQUANT Direct; conditions: Homo sapiens, Lung cancer, 48 hours, read-out: Compound EC50
Protocol: as §1

[3] = tested on: M14; experiment: Cell viability panel, CyQUANT Direct; conditions: Homo sapiens, Melanoma, 48 hours, read-out: Compound EC50
Protocol: as §1

[4] = tested on: U251; experiment: Cell viability panel, CyQUANT Direct; conditions: Homo sapiens, U-251, CNS, 48 hours, read-out: Compound EC50
Protocol: as §1

[5] = tested on: EKVX; experiment: Cell viability panel, CyQUANT Direct; conditions: Homo sapiens, Lung cancer, 48 hours, read-out: Compound EC50
Protocol: as §1

[6] = tested on: HOP-92; experiment: Cell viability panel, CyQUANT Direct; conditions: Homo sapiens, Lung cancer, 48 hours, read-out: Compound EC50
Protocol: as §1

[7] = tested on: OVCAR-4; experiment: Cell viability panel, CyQUANT Direct; conditions: Homo sapiens, Ovarian Cancer, 48 hours, read-out: Compound EC50
Protocol: as §1

[8] = tested on: HOP-62; experiment: Cell viability panel, CyQUANT Direct; conditions: Homo sapiens, Lung cancer, 48 hours, read-out: Compound EC50
Protocol: as §1

[9] = tested on: UO-31; experiment: Cell viability panel, CyQUANT Direct; conditions: Homo sapiens, Renal cancer, 48 hours, read-out: Compound EC50
Protocol: as §1

[10] = tested on: KM-12; experiment: Cell viability panel, CyQUANT Direct; conditions: Homo sapiens, KM12, Colon cancer, 48 hours, read-out: Compound EC50
Protocol: as §1

[11] = tested on: MDA-MB-468; experiment: Cell viability panel, CyQUANT Direct; conditions: Homo sapiens, Breast cancer, 48 hours, read-out: Compound EC50
Protocol: as §1

[12] = tested on: MDA-MB-231; experiment: Cell viability panel, CyQUANT Direct; conditions: Homo sapiens, Breast Cancer, 48 hours, read-out: Compound EC50
Protocol: as §1

[13] = tested on: SF-268; experiment: Cell viability panel, CyQUANT Direct; conditions: Homo sapiens, CNS, 48 hours, read-out: Compound EC50
Protocol: as §1

[14] = tested on: IGR-OV1; experiment: Cell viability panel, CyQUANT Direct; conditions: Homo sapiens, IGROV-1, Ovarian cancer, 48 hours, read-out: Compound EC50
Protocol: as §1

[15] = tested on: HT-29; experiment: Cell viability panel, CyQUANT Direct; conditions: Homo sapiens, Colon cancer, 48 hours, read-out: Compound EC50
Protocol: as §1

[16] = tested on: SK-MEL-2; experiment: Cell viability panel, CyQUANT Direct; conditions: Homo sapiens, Melanoma, 48 hours, read-out: Compound EC50
Protocol: as §1

[17] = tested on: SF-539; experiment: Cell viability panel, CyQUANT Direct; conditions: Homo sapiens, CNS, 48 hours, read-out: Compound EC50
Protocol: as §1

[18] = tested on: HCC-2998; experiment: Cell viability panel, CyQUANT Direct; conditions: Homo sapiens, Colon cancer, 48 hours, read-out: Compound EC50
Protocol: as §1

[19] = tested on: MALME-3M; experiment: Cell viability panel, CyQUANT Direct; conditions: Homo sapiens, Melanoma, 48 hours, read-out: Compound EC50
Protocol: as §1

[20] = tested on: LOX IMVI; experiment: Cell viability panel, CyQUANT Direct; conditions: Homo sapiens, Melanoma, 48 hours, read-out: Compound EC50
Protocol: as §1

[21] = tested on: RXF-393; experiment: Cell viability panel, CyQUANT Direct; conditions: Homo sapiens, Renal cancer, 48 hours, read-out: Compound EC50
Protocol: as §1

[22] = tested on: TK-10; experiment: Cell viability panel, CyQUANT Direct; conditions: Homo sapiens, Renal cancer, 48 hours, read-out: Compound EC50
Protocol: as §1

[23] = tested on: SNB-19; experiment: Cell viability panel, CyQUANT Direct; conditions: Homo sapiens, CNS, 48 hours, read-out: Compound EC50
Protocol: as §1

[24] = tested on: CAKI-1; experiment: Cell viability panel, CyQUANT Direct; conditions: Homo sapiens, Renal cancer, 48 hours, read-out: Compound EC50
Protocol: as §1

[25] = tested on: SF-295; experiment: Cell viability panel, CyQUANT Direct; conditions: Homo sapiens, CNS, 48 hours, read-out: Compound EC50
Protocol: as §1

[26] = tested on: SK-OV-3; experiment: Cell viability panel, CyQUANT Direct; conditions: Homo sapiens, Ovarian, 48 hours, read-out: Compound EC50
Protocol: as §1

[27] = tested on: NCI-H522; experiment: Cell viability panel, CyQUANT Direct; conditions: Homo sapiens, Lung Cancer, 48 hours, read-out: Compound EC50
Protocol: as §1

[28] = tested on: SN12C; experiment: Cell viability panel, CyQUANT Direct; conditions: Homo sapiens, Renal cancer, 48 hours, read-out: Compound EC50
Protocol: as §1

[29] = tested on: SK-MEL-28; experiment: Cell viability panel, CyQUANT Direct; conditions: Homo sapiens, Melanoma, 48 hours, read-out: Compound EC50
Protocol: as §1

[30] = tested on: OVCAR-8; experiment: Cell viability panel, CyQUANT Direct; conditions: Homo sapiens, Ovarian Cancer, 48 hours, read-out: Compound EC50
Protocol: as §1

[31] = tested on: SK-MEL-5; experiment: Cell viability panel, CyQUANT Direct; conditions: Homo sapiens, Melanoma, 48 hours, read-out: Compound EC50
Protocol: as §1

[32] = tested on: UACC-62; experiment: Cell viability panel, CyQUANT Direct; conditions: Homo sapiens, Melanoma, 48 hours, read-out: Compound EC50
Protocol: as §1

[33] = tested on: OVCAR-5; experiment: Cell viability panel, CyQUANT Direct; conditions: Homo sapiens, Ovarian Cancer, 48 hours, read-out: Compound EC50
Protocol: as §1

[34] = tested on: MDA-MB-435; experiment: Cell viability panel, CyQUANT Direct; conditions: Homo sapiens, Melanoma, 48 hours, read-out: Compound EC50
Protocol: as §1

[35] = tested on: UACC-257; experiment: Cell viability panel, CyQUANT Direct; conditions: Homo sapiens, Melanoma, 48 hours, read-out: Compound EC50
Protocol: as §1

[36] = tested on: NCI-H23; experiment: Cell viability panel, CyQUANT Direct; conditions: Homo sapiens, Lung cancer, 48 hours, read-out: Compound EC50
Protocol: as §1

[37] = tested on: SNB-75; experiment: NCI60 screen cytotoxicity; conditions: Homo sapiens, CNS, read-out: Compound B1 EC50

For CN(C)CCCS(=O)(=O)N1C/C(=C\c2ccc(C#N)cc2)C(=O)/C(=C/c2ccc(C#N)cc2)C1 [Compound AA], the EC50 [1] was 300 to 1000 nM, the EC50 [2] was 300 to 1000 nM and the EC50 [3] was less than 300 nM. The EC50 [4] was less than 300 nM, the EC50 [5] was 300 to 1000 nM and the EC50 [6] was 300 to 1000 nM. It also gave an EC50 [7] of 300 to 1000 nM, an EC50 [8] of 300 to 1000 nM and an EC50 [9] of 300 to 1000 nM. The EC50 [10] was less than 300 nM, the EC50 [11] was less than 300 nM and the EC50 [12] was less than 300 nM. For the same molecule, the EC50 [13] was less than 300 nM, the EC50 [14] was less than 300 nM and the EC50 [15] was 300 to 1000 nM. It also gave an EC50 [16] of less than 300 nM, an EC50 [17] of less than 300 nM and an EC50 [18] of 300 to 1000 nM. For the same molecule, the EC50 [19] was less than 300 nM, the EC50 [20] was less than 300 nM and the EC50 [21] was no less than 1000 nM. It also gave an EC50 [22] of 300 to 1000 nM, an EC50 [23] of less than 300 nM and an EC50 [24] of no less than 1000 nM. For the same molecule, the EC50 [25] was less than 300 nM, the EC50 [26] was less than 300 nM and the EC50 [27] was less than 300 nM. For the same molecule, the EC50 [28] was less than 300 nM, the EC50 [29] was less than 300 nM and the EC50 [30] was less than 300 nM. For the same molecule, the EC50 [31] was less than 300 nM, the EC50 [32] was less than 300 nM and the EC50 [33] was less than 300 nM. It also gave an EC50 [34] of less than 300 nM, an EC50 [35] of 300 to 1000 nM and an EC50 [36] of 300 to 1000 nM.
With CN(C)CC(=O)NCC(=O)N1C/C(=C\c2ccc(C#N)cc2)C(=O)/C(=C/c2ccc(C#N)cc2)C1 [Compound B1] the EC50 [37] was 300 to 1000 nM.
